Laboratory results published in patent US12036312B2, “Non-aqueous topical compositions comprising a halogenated salicylanilide” (priority 2016, dated 2024).
Like-named read-outs stand apart in the source and are kept apart here.

Key:
P. acnes = assay type: cell-based, Propionibacterium acnes; settings: for Frequency of mutation/ml: MIC × 4
S. aureus = test: MIC assay according to CLSI criteria, Example 2, S. aureus strains; assay type: cell-based, Staphylococcus aureus; settings: Staphylococcus aureus
From the text: Chosen for its relevance regarding bacterial skin infections, the methicillin-resistant S. aureus (MRSA) 01 strain was used as the primary test microorganism. This strain is a community-acquired MRSA clinical isolate of USA 300 type, from a skin abscess.
Two-hundred-four other MRSA and methicillin-sensitive S. aureus strains, and 4 Streptococcus pyogenes strains, were also included in the study. These covered fusidic acid- and mupirocin-resistant strains, these two types of resistance being of clinical relevance.
Strains were conserved in Luria Bertani (LB) Broth (S. aureus) or Brain Heart Infusion (BHI) (S. pyogenes) supplemented with glycerol 15% (v/v) at −80° C., and reactivated by isolation on LB (S. aureus) or BHI (S. pyogenes) agar plates. Strains were cultivated in Mueller Hinton (MH) Broth-cation adjusted (S. aureus) or BHI (S. pyogenes). All strains were cultivated aerobically (microaerobically for S. pyogenes strains) at 37° C.
Bacterial cultures were stopped in their exponential growth phase and plates were inoculated with the approximate concentration of 5×10^5 cells per well. Plates were incubated at 37° C. for 18 hours (S. aureus) or 24 hours (S. pyogenes). Optical density at a wavelength of 600 nm was measured at the end of the incubation time.

C=C[C@]1(C)C[C@@H](OC(=O)CS[C@@H]2C[C@H]3CC[C@@H](C2)N3C)[C@]2(C)[C@H](C)CC[C@]3(CCC(=O)[C@H]32)[C@@H](C)[C@@H]1O [Retapamulin, retapamulin]
0.125 µg/mL: MIC (S. aureus; MRSA, strain MRSA 21)
2.17e-08 mL⁻¹: Frequency of mutation/ml (P. acnes; P. acnes strain 998)
0.06 µg/mL: MIC (S. aureus; MRSA, strain MRSA 01) | MIC (S. aureus; MRSA, strain MRSA 02) | MIC (S. aureus; MRSA, strain MRSA 04) | MIC (S. aureus; MRSA, strain MRSA 07) | MIC (S. aureus; MRSA, strain MRSA 09) | MIC (S. aureus; MRSA, strain MRSA 10) | MIC (S. aureus; MRSA, strain MRSA 11) | MIC (S. aureus; MRSA, strain MRSA 13) | MIC (S. aureus; MRSA, strain MRSA 15) | MIC (S. aureus; MRSA, strain MRSA 16) | MIC (S. aureus; MRSA, strain MRSA 18) | MIC (S. aureus; MRSA, strain MRSA 20) | MIC (S. aureus; MRSA, strain MRSA 22) | MIC (S. aureus; MRSA, strain MRSA 23) | MIC (S. aureus; MRSA, strain MRSA 24) | MIC (S. aureus; MRSA, strain MRSA 25) | MIC (S. aureus; MRSA, strain MRSA 26) | MIC (S. aureus; MRSA, strain MRSA 27) | MIC (S. aureus; MRSA, strain MRSA 29) | MIC (S. aureus; MRSA, strain MRSA 32) | MIC (S. aureus; MRSA, strain MRSA 33) | MIC (S. aureus; MRSA, strain MRSA 34) | MIC (S. aureus; MRSA, strain MRSA 36) | MIC (S. aureus; MRSA, strain MRSA 37) | MIC (S. aureus; MRSA, strain MRSA 38) | MIC (S. aureus; MRSA, strain MRSA 39) | MIC (S. aureus; MRSA, strain MRSA 42) | MIC (S. aureus; MRSA, strain MRSA 43) | MIC (S. aureus; MRSA, strain MRSA 90) | MIC (S. aureus; MRSA, strain MRSA 91) | MIC (S. aureus; MRSA, strain MRSA 92)
< 0.01 µg/mL: MIC (S. aureus; MRSA, strain MRSA 56) | MIC (S. aureus; MRSA, strain MRSA 69) | MIC (S. aureus; MRSA, strain MRSA 71) | MIC (S. aureus; MRSA, strain MRSA 79)
0.02 µg/mL: MIC (S. aureus; MRSA, strain MRSA 27b) | MIC (S. aureus; MRSA, strain MRSA 41) | MIC (S. aureus; MRSA, strain MRSA 44) | MIC (S. aureus; MRSA, strain MRSA 45) | MIC (S. aureus; MRSA, strain MRSA 46) | MIC (S. aureus; MRSA, strain MRSA 47) | MIC (S. aureus; MRSA, strain MRSA 48) | MIC (S. aureus; MRSA, strain MRSA 49) | MIC (S. aureus; MRSA, strain MRSA 50) | MIC (S. aureus; MRSA, strain MRSA 52) | MIC (S. aureus; MRSA, strain MRSA 55) | MIC (S. aureus; MRSA, strain MRSA 57) | MIC (S. aureus; MRSA, strain MRSA 58) | MIC (S. aureus; MRSA, strain MRSA 59) | MIC (S. aureus; MRSA, strain MRSA 60) | MIC (S. aureus; MRSA, strain MRSA 61) | MIC (S. aureus; MRSA, strain MRSA 62) | MIC (S. aureus; MRSA, strain MRSA 63) | MIC (S. aureus; MRSA, strain MRSA 64) | MIC (S. aureus; MRSA, strain MRSA 65) | MIC (S. aureus; MRSA, strain MRSA 66) | MIC (S. aureus; MRSA, strain MRSA 67) | MIC (S. aureus; MRSA, strain MRSA 68) | MIC (S. aureus; MRSA, strain MRSA 70) | MIC (S. aureus; MRSA, strain MRSA 80) | MIC (S. aureus; MRSA, strain MRSA 87) | MIC (S. aureus; MRSA, strain MRSA 89) | MIC (S. aureus; MRSA, strain MRSA 93)
~1×10^−8: frequency of mutation of resistance (P. acnes; P. acnes)
1.46e-08 mL⁻¹: Frequency of mutation/ml (P. acnes; P. acnes strain CSS3023)
1.09e-08 mL⁻¹: Frequency of mutation/ml (P. acnes; P. acnes strain 1044)
0.03 µg/mL: MIC (S. aureus; ATCC29213, strain ATCC 29213) | MIC (S. aureus; MRSA, strain MRSA 03) | MIC (S. aureus; MRSA, strain MRSA 05) | MIC (S. aureus; MRSA, strain MRSA 06) | MIC (S. aureus; MRSA, strain MRSA 08) | MIC (S. aureus; MRSA, strain MRSA 12) | MIC (S. aureus; MRSA, strain MRSA 14) | MIC (S. aureus; MRSA, strain MRSA 17) | MIC (S. aureus; MRSA, strain MRSA 19) | MIC (S. aureus; MRSA, strain MRSA 28) | MIC (S. aureus; MRSA, strain MRSA 30) | MIC (S. aureus; MRSA, strain MRSA 35) | MIC (S. aureus; MRSA, strain MRSA 40) | MIC (S. aureus; MRSA, strain MRSA 51) | MIC (S. aureus; MRSA, strain MRSA 53) | MIC (S. aureus; MRSA, strain MRSA 54) | MIC (S. aureus; MRSA, strain MRSA 72) | MIC (S. aureus; MRSA, strain MRSA 73) | MIC (S. aureus; MRSA, strain MRSA 74) | MIC (S. aureus; MRSA, strain MRSA 75) | MIC (S. aureus; MRSA, strain MRSA 76) | MIC (S. aureus; MRSA, strain MRSA 77) | MIC (S. aureus; MRSA, strain MRSA 78) | MIC (S. aureus; MRSA, strain MRSA 81) | MIC (S. aureus; MRSA, strain MRSA 82) | MIC (S. aureus; MRSA, strain MRSA 83) | MIC (S. aureus; MRSA, strain MRSA 84) | MIC (S. aureus; MRSA, strain MRSA 85) | MIC (S. aureus; MRSA, strain MRSA 86) | MIC (S. aureus; MRSA, strain MRSA 88) | MIC (S. aureus; MRSA, strain MRSA 94) | MIC (S. aureus; MRSA, strain MRSA 95) | MIC (S. aureus; MRSA, strain MRSA 96) | MIC (S. aureus; MRSA, strain MRSA 97) | MIC (S. aureus; MRSA, strain MRSA 98)
1.25e-08 mL⁻¹: Frequency of mutation/ml (P. acnes; P. acnes strain CSS3288)
16 µg/mL: MIC (S. aureus; MRSA, strain MRSA 31)
